In ChEMBL document CHEMBL3867473, “The comparison of neuroprotective effects of isoliquiritigenin and its Phase I metabolites against glutamate-induced HT22 cell death” (2016):
Calls of active or inactive are those of the source. No cut-off for these calls is given here.

Legend:
HT-22 [1] = test: Neuroprotective activity in mouse HT22 cells assessed as decrease in glutamate-induced reduction of full-length Bid level at 5 uM pretreated for 12 hrs prior to glutamate-challenge measured after 12 hrs by Western blotting assay (reference value: 0.9 +/- 0.05); assay type: functional
HT-22 [2] = test: Neuroprotective activity in mouse HT22 cells assessed as decrease of glutamate-induced ROS production at 10 uM pretreated for 12 hrs prior to glutamate-challenge measured after 12 hrs by CM-H2CDFDA staining-based flow cytometry (reference value: 3.95 +/- 0.01); assay type: functional
HT-22 [3] = test: Inhibition of glutamate-induced increase in ERK phosphorylation in mouse HT22 cells at 5 uM pretreated for 12 hrs followed by glutamate-challenge measured after 12 hrs by Western blotting assay (reference value: 3.01 +/- 0.3); assay type: cell-based
[4] = Neuroprotective activity against glutamate-induced cell death in mouse HT22 cells assessed as cell viability at 10 uM pretreated for 12 hrs prior to glutamate-challenge measured after 12 hrs by MTT assay (reference value: 43.35 +/- 1.48%); assay type: functional; details: HT-22, read-out: Activity
HT-22 [5] = test: Neuroprotective activity against glutamate-induced oxidative stress in mouse HT22 cells assessed as ROS level at 10 uM pretreated for 12 hrs prior to glutamate-challenge measured after 12 hrs (reference value: 241.63 +/- 7.98%); assay type: functional
HT-22 [6] = test: Neuroprotective activity in mouse HT22 cells assessed as decrease of glutamate-induced ROS production at 5 uM pretreated for 12 hrs prior to glutamate-challenge measured after 12 hrs by CM-H2CDFDA staining-based flow cytometry (reference value: 3.95 +/- 0.01); assay type: functional
[7] = target: MAP kinase p38 (Mus musculus) (UniProt P47811+O08911+Q9WUI1+Q9Z1B7); test: Inhibition of glutamate-induced increase in p38 phosphorylation in mouse HT22 cells at 5 uM pretreated for 12 hrs followed by glutamate-challenge measured after 12 hrs by Western blotting assay (reference value: 2.46 +/- 0.96); assay type: cell-based; details: HT-22
HT-22 [8] = test: Inhibition of glutamate-induced increase in JNK phosphorylation in mouse HT22 cells at 5 uM pretreated for 12 hrs followed by glutamate-challenge measured after 12 hrs by Western blotting assay (reference value: 1.84 +/- 0.11); assay type: cell-based
HT-22 [9] = test: Neuroprotective activity in mouse HT22 cells assessed as decrease in glutamate-induced reduction of full-length Bid level at 5 uM pretreated for 12 hrs prior to glutamate-challenge measured after 12 hrs by Western blotting assay; assay type: functional, cell-based
HT-22 [10] = test: Neuroprotective activity against glutamate-induced oxidative stress in mouse HT22 cells assessed as ROS level at 5 uM pretreated for 12 hrs prior to glutamate-challenge measured after 12 hrs (reference value: 241.63 +/- 7.98%); assay type: functional

SMILES	fold change (FC) (HT-22 [1])	fold change (FC) (HT-22 [2])	fold change (FC) (HT-22 [3])	viability at 10 µM [4] [%]	Activity (HT-22 [5]) [%]	fold change (FC) (HT-22 [6])	fold change (FC) [7]	fold change (FC) (HT-22 [8])	Activity (HT-22 [9])	Activity (HT-22 [10]) [%]
O=c1c(O)c(-c2ccc(O)c(O)c2)oc2cc(O)cc(O)c12 [QUERCETIN]	1.16	0.79	0.77	93.7	53.84	–	–	–	–	–
O=C1/C(=C/c2ccc(O)c(O)c2)Oc2cc(O)ccc21 [SULFURETIN]	–	–	2.02	93.7	–	1.82	1.09	0.72	Active	102.25
O=C(/C=C/c1ccc(O)c(O)c1)c1ccc(O)cc1O [BUTEIN]	1.22	–	1.49	92.5	–	0.69	0.75	0.73	–	59.79
O=C(/C=C/c1ccc(O)cc1)c1ccc(O)cc1O [ISOLIQUIRITIGENIN]	0.94	–	0.8	78.9	–	1.44	1.03	1	–	96.19
O=C(/C=C/c1ccc(O)cc1)c1cc(O)c(O)cc1O	–	–	1.64	83.5	–	2.39	1.21	1.08	Active	137.94
